Values quoted from earlier work, collected in patent CN104352465A, “一种不含二氧化硅的琥珀酸普芦卡必利药物组合物及其制备方法” (CHENGDU SINO-STRONG PHARMACEUTICAL Co Ltd, priority 2014, dated 2015).

Details: within shelf life, with the diluent lactose monohydrate

COCCCN1CCC(NC(=O)c2cc(Cl)c(N)c3c2OCC3)CC1.O=C(O)CCC(=O)O [琥珀酸普芦卡必利, 4-氨基-5-氯-2,3-二氢-N-[1-(3-甲氧基丙基)-4-哌啶基]-7-苯并呋喃甲酰胺丁二酸盐]
adduct formation with lactose monohydrate: 形成乳糖加合物
